Data reported in the supplement of paper PMC10307832.

Tests used:
Assay in all cases: relative viability (nuclei count vs DMSO), 5 days (fraction); higher = more cells survive
[1] = compound: CCN(CCO)CCCC(C)Nc1ccnc2cc(Cl)ccc12 [Hydroxychloroquine] + CS(=O)(=O)N1CCN(Cc2cc3nc(-c4cccc5[nH]ncc45)nc(N4CCOCC4)c3s2)CC1 [Pictilisib] (partner 1 µM)
In short: (§1)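 Lung cancer cell lines were seeded in 1536-well plates and dosed by pin tool the next day, with either a single drug or a fixed anchor-drug dose combined with five library-drug doses (not always all listed) spaced in √10 steps. Five days later, one step fixed the cells and stained their nuclei (final 0.05% Triton X-100, 1% formaldehyde, 1 ug/ml Hoechst), and nuclei were counted on 4× images. Relative viability is the nuclei count in treated wells divided by the count in vehicle wells, and each value is the median of duplicate plates.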

[2] = compound: CCN(CCO)CCCC(C)Nc1ccnc2cc(Cl)ccc12 [Hydroxychloroquine] + Cc1nc(NC(=O)N2CCC[C@H]2C(N)=O)sc1-c1ccnc(C(C)(C)C(F)(F)F)c1 [Alpelisib] (partner 2 µM)
In short: as §1

[3] = compound: CCN(CCO)CCCC(C)Nc1ccnc2cc(Cl)ccc12 [Hydroxychloroquine] + N=C(N)NC(=N)NCCc1ccccc1 [Phenformin] (partner 250 µM)
In short: as §1

[4] = compound: CCN(CCO)CCCC(C)Nc1ccnc2cc(Cl)ccc12 [Hydroxychloroquine] + NC(=O)Nc1cc(-c2cccc(F)c2)sc1C(=O)N[C@H]1CCCNC1 [AZD7762] (partner 0.2 µM)
In short: as §1

Cell Line	relative viability ([1]; first compound 0.5 µM)	relative viability ([1]; first compound 1.581 µM)	relative viability ([1]; first compound 5 µM)	relative viability ([1]; first compound 15.81 µM)	relative viability ([1]; first compound 50 µM)	relative viability ([2]; first compound 0.5 µM)	relative viability ([2]; first compound 1.581 µM)	relative viability ([2]; first compound 5 µM)	relative viability ([2]; first compound 15.81 µM)	relative viability ([2]; first compound 50 µM)	relative viability ([3]; first compound 0.5 µM)	relative viability ([3]; first compound 1.581 µM)	relative viability ([3]; first compound 5 µM)	relative viability ([3]; first compound 15.81 µM)	relative viability ([3]; first compound 50 µM)	relative viability ([4]; first compound 0.5 µM)	relative viability ([4]; first compound 1.581 µM)	relative viability ([4]; first compound 5 µM)	relative viability ([4]; first compound 15.81 µM)	relative viability ([4]; first compound 50 µM)
NCI-H1792	0.286	0.256	0.254	0.26	0.249	0.677	0.698	0.65	0.392	0.664	0.529	0.261	0.258	0.102	0.371	0.762	0.692	0.57	0.601	0.836
NCI-H1793	0.349	0.308	0.415	0.307	0.364	0.832	0.738	0.635	0.736	0.749	0.38	0.325	0.364	0.351	0.36	0.46	0.615	0.452	0.402	0.404
NCI-H1915	0.973	0.869	0.947	0.895	0.978	1.03	1.08	1.06	1.13	1.07	0.347	0.36	0.361	0.383	0.369	0.65	0.742	0.731	0.711	0.707
NCI-H1944	0.309	0.293	0.326	0.325	0.382	0.797	0.778	0.858	0.794	0.848	0.196	0.17	0.193	0.195	0.204	0.828	0.75	0.513	0.432	0.455
NCI-H1975	0.292	0.26	0.305	0.263	0.328	0.642	0.668	0.631	0.697	0.75	0.41	0.37	0.378	0.408	0.396	0.679	0.659	0.752	0.698	0.754
NCI-H1993	0.824	0.961	0.625	0.81	0.789	0.632	0.712	0.789	0.71	0.692	0.514	0.55	0.475	0.51	0.476	0.699	0.597	0.927	0.79	0.817
NCI-H2085	0.434	0.509	0.462	0.392	0.472	0.91	0.998	0.973	0.914	0.917	0.762	0.509	0.688	0.727	0.692	1.03	0.933	0.922	0.927	1.06
NCI-H2087	0.891	0.879	0.798	0.919	0.721	1.03	1.06	0.87	1.08	1.02	0.445	0.383	0.486	0.566	0.464	1.33	1.19	1.46	1.32	1.48
NCI-H2126	0.525	0.433	0.485	0.467	0.542	0.727	0.738	0.73	0.775	0.794	0.528	0.534	0.56	0.521	0.506	1.07	1.12	0.984	1.08	1.03
NCI-H2170	0.327	0.294	0.282	0.284	0.333	0.832	0.797	0.844	0.801	0.835	0.427	0.413	0.435	0.427	0.417	0.925	0.918	0.867	0.882	1.09
NCI-H2347	0.511	0.534	0.573	0.6	0.637	1.06	0.904	1.02	1.11	0.956	0.469	0.466	0.446	0.329	0.377	0.657	0.692	0.806	0.701	0.882
NCI-H2405	0.471	0.346	0.416	0.466	0.541	0.961	0.592	0.879	0.856	0.845	0.417	0.352	0.368	0.384	0.398	0.879	0.841	0.717	0.675	0.768
NCI-H3122	0.658	0.574	0.619	0.58	0.576	0.798	0.736	0.822	0.779	0.8	0.379	0.364	0.373	0.358	0.344	0.956	0.976	1.06	0.993	1.13
PC-3 [JPC-3]	0.79	0.696	0.693	0.674	0.784	1.01	1.04	1.06	1	1.02	0.448	0.457	0.448	0.432	0.507	0.905	0.882	0.652	0.727	0.774
PC-14	0.7	0.687	0.683	0.595	0.78	0.782	0.858	0.951	0.892	1.01	0.676	0.573	0.551	0.595	0.601	0.3	0.459	0.31	0.302	0.406
RERF-LC-KJ	0.43	0.518	0.55	0.488	0.603	0.778	0.697	0.732	0.879	0.852	0.4	0.402	0.406	0.402	0.408	0.959	0.961	1.01	0.91	1.08
